The values that follow come from ChEMBL document CHEMBL5465560, “Selectivity Literature for EUbOPEN Chemogenomic Library” (2024).

Assay [1] deals with T1, Aurora kinase A (Homo sapiens) (UniProt O14965).
T1 sequence (whole entry): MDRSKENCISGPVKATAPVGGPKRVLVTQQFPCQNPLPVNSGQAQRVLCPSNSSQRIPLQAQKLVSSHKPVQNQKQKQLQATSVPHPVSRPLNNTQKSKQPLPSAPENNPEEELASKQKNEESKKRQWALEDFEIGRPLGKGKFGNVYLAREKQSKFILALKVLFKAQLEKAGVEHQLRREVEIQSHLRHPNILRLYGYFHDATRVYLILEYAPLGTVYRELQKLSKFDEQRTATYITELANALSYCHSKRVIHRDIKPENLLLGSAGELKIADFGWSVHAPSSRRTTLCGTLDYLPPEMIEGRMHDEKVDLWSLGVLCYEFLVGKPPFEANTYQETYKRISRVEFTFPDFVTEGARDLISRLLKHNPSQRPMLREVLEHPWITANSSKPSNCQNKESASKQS
Put plainly: Selectivity interaction (Kinase panel (Carna Biosciences)) EUB0001542aTs STK6. The following applies: at 1 µM.

Assay [2] has as its target Mitogen-activated protein kinase 14 (Homo sapiens, UniProt Q16539). The assay is described as follows: Selectivity interaction (Ambit KINOMEscan and KiNATiv profiling in Jurkat cells) EUB0000090b MAPK14. In kind it is cell-based. The following applies: at 1 µM.
Assay [3] deals with Serine/threonine-protein kinase PAK 4 (Homo sapiens, UniProt O96013). The assay is described as follows: Selectivity interaction (Ambit KINOMEscan and KiNATiv profiling in Jurkat cells) EUB0000090b PAK4. It counts as cell-based. The following applies: at 1 µM.
Assay [4] deals with Serine/threonine-protein kinase PAK 6 (Homo sapiens) (UniProt Q9NQU5). Put plainly: Selectivity interaction (Ambit KINOMEscan and KiNATiv profiling in Jurkat cells) EUB0000090b PAK6. It counts as cell-based. The following applies: at 1 µM.
Assay [5] has as its target Serine/threonine-protein kinase SIK2 (Homo sapiens) (UniProt Q9H0K1). Put plainly: Selectivity interaction (KinomeScan (DiscoverX)) EUB0000607a SIK2. The following applies: at 10 µM.
Assay [6] deals with Epidermal growth factor receptor (Homo sapiens), P00533 [UNDEFINED MUTATION]. The following applies: at 10 µM.
For assay [7], the target named is Serine/threonine-protein kinase PAK 1 (Homo sapiens) (UniProt Q13153). The assay is described as follows: Selectivity interaction (KinomeScan (DiscoverX)) EUB0000229b PAK1. The following applies: at 10 µM.
Assay [8] addresses Tyrosine-protein kinase receptor Tie-1 (Homo sapiens) (UniProt P35590). The assay is described as follows: Selectivity interaction (KinomeScan (DiscoverX)) EUB0000229b TIE1. The following applies: at 10 µM.
The target of assay [9] is Ribosomal protein S6 kinase alpha-2 (Homo sapiens) (UniProt Q15349). Put plainly: Selectivity interaction (KinomeScan (DiscoverX)) EUB0000311b RPS6KA2. The following applies: at 1 µM.
For assay [10], the target named is Casein kinase I isoform gamma-3 (Homo sapiens) (UniProt Q9Y6M4). The assay is described as follows: Selectivity interaction (KinaseProfiler screening (Millipore)) EUB0000601a CSNK1G3. The following applies: at 3 µM.
Assay [11] deals with eIF-2-alpha kinase GCN2 (Homo sapiens), Q9P2K8 [S808G]. The assay is described as follows: Selectivity interaction (KinomeScan (DiscoverX)) EUB0001619a EIF2AK4. The following applies: at 1 µM.
A further assay concerns the target SRSF protein kinase 1 (Homo sapiens, UniProt Q96SB4). Put plainly: Selectivity interaction (ActivX KiNativ screen (kinase selectivity in THP-1 cell lysates)) EUB0000639a SRPK1. In kind it is subcellular. The following applies: lysate, at 0.2 µM.
For assay [12], the target named is T2, Mitogen-activated protein kinase kinase kinase 13 (Homo sapiens) (UniProt O43283).
T2 sequence (whole entry): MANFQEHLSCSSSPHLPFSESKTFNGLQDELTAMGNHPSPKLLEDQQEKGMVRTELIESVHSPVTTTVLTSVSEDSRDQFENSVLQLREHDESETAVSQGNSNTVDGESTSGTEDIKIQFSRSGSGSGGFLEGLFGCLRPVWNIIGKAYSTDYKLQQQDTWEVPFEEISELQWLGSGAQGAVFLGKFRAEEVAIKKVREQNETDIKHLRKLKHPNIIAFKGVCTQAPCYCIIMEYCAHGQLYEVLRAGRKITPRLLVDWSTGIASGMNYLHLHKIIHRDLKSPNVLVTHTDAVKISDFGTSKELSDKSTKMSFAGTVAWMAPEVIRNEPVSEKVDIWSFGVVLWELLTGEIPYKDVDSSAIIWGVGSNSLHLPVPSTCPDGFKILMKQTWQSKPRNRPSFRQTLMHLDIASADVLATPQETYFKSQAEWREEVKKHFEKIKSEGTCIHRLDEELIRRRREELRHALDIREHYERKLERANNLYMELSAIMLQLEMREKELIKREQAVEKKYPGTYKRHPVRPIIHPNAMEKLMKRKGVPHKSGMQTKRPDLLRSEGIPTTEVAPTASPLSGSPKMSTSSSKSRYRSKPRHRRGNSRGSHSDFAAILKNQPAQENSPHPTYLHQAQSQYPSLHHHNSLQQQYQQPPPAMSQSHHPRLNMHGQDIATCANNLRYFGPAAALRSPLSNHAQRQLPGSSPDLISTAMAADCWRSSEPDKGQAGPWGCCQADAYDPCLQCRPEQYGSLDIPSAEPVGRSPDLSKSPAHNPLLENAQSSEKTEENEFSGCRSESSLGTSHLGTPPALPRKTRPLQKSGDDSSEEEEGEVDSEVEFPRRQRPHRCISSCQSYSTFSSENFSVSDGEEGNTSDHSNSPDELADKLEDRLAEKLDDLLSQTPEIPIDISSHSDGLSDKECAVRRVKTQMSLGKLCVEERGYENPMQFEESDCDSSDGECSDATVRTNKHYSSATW
The assay is described as follows: Selectivity interaction (KinomeScan (DiscoverX)) EUB0001049a MAP3K13. The following applies: at 1 µM.

The target of assay [13] is Adenosine receptor A3 (Homo sapiens) (UniProt P0DMS8). Put plainly: Selectivity interaction (Eurofins CEREP Diversity Profile (receptors and ion channels)) EUB0000279b ADORA3. The following applies: at 10 µM.
Assay [14] addresses Serine/threonine-protein kinase MRCK gamma (Homo sapiens) (UniProt Q6DT37). Put plainly: Selectivity interaction (KinomeScan (DiscoverX)) EUB0000092b CDC42BPG. The following applies: at 10 µM.
Assay [15] deals with Non-receptor tyrosine-protein kinase TYK2 (Homo sapiens, UniProt P29597). Put plainly: Selectivity interaction (KinomeScan (DiscoverX)) EUB0000092b TYK2. The following applies: at 10 µM.
Assay [16] deals with Death-associated protein kinase 3 (Homo sapiens) (UniProt O43293). The assay is described as follows: Selectivity interaction (Kinase panel (DSF assay)) EUB0001559a DAPK3.
In assay [17] the target is Serine/threonine-protein kinase OSR1 (Homo sapiens) (UniProt O95747). The assay is described as follows: Selectivity interaction (KinomeScan (DiscoverX)) EUB0000045b OXSR1.
The target of assay [18] is Serine/threonine-protein kinase pim-1 (Homo sapiens, UniProt P11309). The assay is described as follows: Selectivity interaction (Upstate Kinase Profiler service (Millipore)) EUB0000056c PIM1. The following applies: at 1 µM.
Serine/threonine-protein kinase pim-1, sequence (P11309 whole entry, looked up): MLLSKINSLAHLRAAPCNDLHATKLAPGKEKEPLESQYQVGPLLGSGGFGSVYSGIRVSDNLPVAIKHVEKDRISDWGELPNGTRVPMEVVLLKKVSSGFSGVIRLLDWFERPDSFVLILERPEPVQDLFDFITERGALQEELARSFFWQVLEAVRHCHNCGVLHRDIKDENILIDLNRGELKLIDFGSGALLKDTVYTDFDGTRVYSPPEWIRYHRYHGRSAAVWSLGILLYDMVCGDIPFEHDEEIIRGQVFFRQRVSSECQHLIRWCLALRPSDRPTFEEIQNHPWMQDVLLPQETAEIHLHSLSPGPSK

Serine/threonine-protein kinase OSR1 (Homo sapiens), sequence (O95747 2-527 limits assumed): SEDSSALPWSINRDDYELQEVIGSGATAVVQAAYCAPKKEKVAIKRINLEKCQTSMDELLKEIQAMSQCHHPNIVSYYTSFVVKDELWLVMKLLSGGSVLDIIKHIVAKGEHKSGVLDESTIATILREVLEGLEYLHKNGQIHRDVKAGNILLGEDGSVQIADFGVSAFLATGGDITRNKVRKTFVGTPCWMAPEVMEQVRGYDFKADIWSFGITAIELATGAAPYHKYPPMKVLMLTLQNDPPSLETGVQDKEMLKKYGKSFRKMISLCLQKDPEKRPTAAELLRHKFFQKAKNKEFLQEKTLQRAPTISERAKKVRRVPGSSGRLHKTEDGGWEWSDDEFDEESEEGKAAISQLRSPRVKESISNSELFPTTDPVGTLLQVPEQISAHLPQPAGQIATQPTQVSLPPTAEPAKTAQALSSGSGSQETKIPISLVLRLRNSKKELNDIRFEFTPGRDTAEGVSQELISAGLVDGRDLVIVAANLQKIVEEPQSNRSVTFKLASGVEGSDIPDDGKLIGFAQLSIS
Adenosine receptor A3 (Homo sapiens), sequence (P0DMS8 whole entry): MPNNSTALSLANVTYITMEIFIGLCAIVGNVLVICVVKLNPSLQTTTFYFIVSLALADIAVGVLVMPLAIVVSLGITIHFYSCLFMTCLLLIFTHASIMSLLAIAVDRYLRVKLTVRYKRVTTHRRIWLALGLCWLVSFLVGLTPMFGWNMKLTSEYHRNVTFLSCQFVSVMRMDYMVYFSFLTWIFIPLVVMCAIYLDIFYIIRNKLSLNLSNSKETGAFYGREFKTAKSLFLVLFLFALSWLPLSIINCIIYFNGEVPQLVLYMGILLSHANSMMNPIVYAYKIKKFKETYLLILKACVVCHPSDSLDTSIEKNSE
Death-associated protein kinase 3 (Homo sapiens), sequence (O43293 whole entry, looked up): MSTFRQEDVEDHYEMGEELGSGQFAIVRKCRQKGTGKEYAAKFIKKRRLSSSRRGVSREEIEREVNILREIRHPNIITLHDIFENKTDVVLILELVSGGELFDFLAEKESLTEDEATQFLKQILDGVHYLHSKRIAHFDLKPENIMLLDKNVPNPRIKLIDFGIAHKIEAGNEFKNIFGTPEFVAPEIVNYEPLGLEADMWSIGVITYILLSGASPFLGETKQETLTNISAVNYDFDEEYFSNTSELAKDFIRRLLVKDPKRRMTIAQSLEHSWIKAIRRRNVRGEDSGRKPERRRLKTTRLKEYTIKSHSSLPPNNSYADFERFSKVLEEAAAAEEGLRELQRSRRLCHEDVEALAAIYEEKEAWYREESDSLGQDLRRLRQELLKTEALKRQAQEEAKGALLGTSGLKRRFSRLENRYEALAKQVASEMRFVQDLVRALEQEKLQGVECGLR
Serine/threonine-protein kinase PAK 1 (Homo sapiens), sequence (Q13153 whole entry): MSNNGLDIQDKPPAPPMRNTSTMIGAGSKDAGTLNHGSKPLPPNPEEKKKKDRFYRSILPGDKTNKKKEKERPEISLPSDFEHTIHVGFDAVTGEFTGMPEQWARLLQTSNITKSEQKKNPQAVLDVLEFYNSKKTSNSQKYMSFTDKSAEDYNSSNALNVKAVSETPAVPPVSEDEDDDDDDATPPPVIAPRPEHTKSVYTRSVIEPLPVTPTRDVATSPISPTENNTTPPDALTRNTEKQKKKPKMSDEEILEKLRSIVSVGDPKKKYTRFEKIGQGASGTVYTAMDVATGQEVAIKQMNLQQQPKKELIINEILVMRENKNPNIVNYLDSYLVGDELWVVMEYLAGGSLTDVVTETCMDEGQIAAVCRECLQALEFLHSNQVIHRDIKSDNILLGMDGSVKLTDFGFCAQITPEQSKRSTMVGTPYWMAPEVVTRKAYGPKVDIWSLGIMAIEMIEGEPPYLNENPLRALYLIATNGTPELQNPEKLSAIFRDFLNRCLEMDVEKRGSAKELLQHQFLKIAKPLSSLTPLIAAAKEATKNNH
Serine/threonine-protein kinase SIK2 (Homo sapiens), sequence (Q9H0K1 whole entry, looked up): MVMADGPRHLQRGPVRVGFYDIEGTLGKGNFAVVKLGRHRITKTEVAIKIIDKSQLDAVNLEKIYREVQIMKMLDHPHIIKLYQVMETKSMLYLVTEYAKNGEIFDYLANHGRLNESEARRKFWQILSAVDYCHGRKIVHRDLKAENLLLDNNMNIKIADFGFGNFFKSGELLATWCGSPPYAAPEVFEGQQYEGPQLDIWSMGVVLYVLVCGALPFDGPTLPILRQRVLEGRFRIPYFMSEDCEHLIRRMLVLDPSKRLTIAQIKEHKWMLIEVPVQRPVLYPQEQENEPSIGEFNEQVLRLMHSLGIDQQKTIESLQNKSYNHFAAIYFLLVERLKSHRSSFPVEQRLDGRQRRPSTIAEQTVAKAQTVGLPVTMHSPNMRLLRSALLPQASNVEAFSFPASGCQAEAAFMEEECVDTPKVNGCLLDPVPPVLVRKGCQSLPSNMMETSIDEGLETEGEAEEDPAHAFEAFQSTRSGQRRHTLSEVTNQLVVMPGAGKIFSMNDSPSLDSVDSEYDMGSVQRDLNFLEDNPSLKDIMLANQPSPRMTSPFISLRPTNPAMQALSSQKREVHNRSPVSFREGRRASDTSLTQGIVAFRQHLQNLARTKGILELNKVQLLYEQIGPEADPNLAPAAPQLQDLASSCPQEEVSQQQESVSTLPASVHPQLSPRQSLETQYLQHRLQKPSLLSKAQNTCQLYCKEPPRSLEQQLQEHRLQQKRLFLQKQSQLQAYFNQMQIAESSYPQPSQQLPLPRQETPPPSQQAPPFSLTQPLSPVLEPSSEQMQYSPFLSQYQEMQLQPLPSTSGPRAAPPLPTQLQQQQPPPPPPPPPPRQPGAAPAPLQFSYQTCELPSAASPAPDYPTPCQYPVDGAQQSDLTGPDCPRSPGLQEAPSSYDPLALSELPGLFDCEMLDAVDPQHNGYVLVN
Non-receptor tyrosine-protein kinase TYK2, sequence (P29597 whole entry): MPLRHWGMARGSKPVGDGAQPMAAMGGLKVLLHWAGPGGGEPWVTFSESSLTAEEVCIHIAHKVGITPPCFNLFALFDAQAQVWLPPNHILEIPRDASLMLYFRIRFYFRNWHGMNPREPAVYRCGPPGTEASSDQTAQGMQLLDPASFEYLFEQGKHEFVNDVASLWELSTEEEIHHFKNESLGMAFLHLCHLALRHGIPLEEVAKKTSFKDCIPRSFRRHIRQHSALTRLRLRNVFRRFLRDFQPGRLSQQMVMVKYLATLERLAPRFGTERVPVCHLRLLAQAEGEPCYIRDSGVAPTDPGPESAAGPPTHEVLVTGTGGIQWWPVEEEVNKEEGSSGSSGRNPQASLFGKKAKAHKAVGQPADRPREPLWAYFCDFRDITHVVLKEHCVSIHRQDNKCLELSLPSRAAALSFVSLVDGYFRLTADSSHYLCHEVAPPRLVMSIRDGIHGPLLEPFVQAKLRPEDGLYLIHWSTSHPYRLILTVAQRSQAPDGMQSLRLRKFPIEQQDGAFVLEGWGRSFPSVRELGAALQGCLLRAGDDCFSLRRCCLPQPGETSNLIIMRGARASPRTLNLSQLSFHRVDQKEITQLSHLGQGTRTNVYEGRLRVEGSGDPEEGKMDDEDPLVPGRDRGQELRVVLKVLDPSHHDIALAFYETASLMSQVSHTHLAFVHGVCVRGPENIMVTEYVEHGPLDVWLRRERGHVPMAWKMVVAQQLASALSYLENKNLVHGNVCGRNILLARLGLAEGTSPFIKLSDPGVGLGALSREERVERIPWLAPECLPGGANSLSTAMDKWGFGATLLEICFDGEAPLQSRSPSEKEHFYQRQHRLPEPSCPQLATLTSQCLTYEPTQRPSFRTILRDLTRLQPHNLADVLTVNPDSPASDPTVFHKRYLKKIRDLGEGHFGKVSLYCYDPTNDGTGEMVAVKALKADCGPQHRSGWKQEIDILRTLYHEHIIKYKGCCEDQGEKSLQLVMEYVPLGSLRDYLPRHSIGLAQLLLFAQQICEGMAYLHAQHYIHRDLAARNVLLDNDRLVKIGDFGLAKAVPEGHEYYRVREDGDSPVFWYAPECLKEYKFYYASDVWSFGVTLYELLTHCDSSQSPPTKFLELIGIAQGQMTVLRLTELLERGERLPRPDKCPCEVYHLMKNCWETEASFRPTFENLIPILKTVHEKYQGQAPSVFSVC
Ribosomal protein S6 kinase alpha-2 (Homo sapiens), sequence (Q15349 whole entry, canonical isoform): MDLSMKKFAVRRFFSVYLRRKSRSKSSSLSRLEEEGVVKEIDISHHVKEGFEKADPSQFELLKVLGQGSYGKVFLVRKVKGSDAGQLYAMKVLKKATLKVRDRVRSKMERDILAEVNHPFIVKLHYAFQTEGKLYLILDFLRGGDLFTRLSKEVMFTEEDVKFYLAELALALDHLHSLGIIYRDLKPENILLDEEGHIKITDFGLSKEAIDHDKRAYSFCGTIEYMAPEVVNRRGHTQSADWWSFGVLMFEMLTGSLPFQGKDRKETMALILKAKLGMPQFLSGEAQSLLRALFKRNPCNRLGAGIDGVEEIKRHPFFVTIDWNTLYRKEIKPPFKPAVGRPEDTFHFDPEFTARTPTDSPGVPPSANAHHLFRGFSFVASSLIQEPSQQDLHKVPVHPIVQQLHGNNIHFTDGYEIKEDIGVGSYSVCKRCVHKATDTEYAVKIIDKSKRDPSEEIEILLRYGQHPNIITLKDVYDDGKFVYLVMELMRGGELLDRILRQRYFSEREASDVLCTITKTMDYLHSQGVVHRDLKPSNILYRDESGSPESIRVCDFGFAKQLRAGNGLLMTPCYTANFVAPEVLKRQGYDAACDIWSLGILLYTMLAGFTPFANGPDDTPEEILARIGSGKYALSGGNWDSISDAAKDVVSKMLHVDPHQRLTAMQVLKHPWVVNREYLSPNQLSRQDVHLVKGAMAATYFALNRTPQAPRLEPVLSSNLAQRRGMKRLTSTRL

Turning to `Cn1cc(Nc2nccc(N3CC4CCC(C3)N4C(=O)[C@@H]3CC3(F)F)n2)cn1`, the % of inhibition in assay [1] was 62%.
As to `CN(C)C/C=C/C(=O)Nc1ccc(C(=O)N2CCCC(Nc3ncc(Cl)c(-c4c[nH]c5ccccc45)n3)C2)cc1` (stereo not given), the % of control in [2] turned out to be 92%; in [3], 78%; in assay [4], 87%.
Take `CNC(=O)Nc1ccc(-c2nc(N3CC4CCC(C3)O4)c3cnn(C4CCC5(CC4)OCCO5)c3n2)cc1`: the % of control in assay [5] amounted to 97%.
`Cc1cc([C@@H](C)Nc2ccccc2C(=O)O)c2nc(N3CCOCC3)cc(=O)n2c1` [AZD-6482] displayed a % of control in [6] of 100%.
Regarding `COc1cc(N(C)c2ccnc3ccc(C(F)(F)F)cc23)cc(OC)c1OC`, the % binding is 89% in assay [7] and 75% in assay [8].
Turning to `CCc1ccccc1C(=O)Nc1n[nH]c2c(C)c(F)c(C3C(C#N)=C(C)N(C)C(C)=C3C#N)cc12` [BAY-3827], in assay [9], the % of control is 0%.
Take `CCc1cc(Nc2nccc(-c3c(-c4ccc(OC)c(C(=O)Nc5c(F)cccc5F)c4)nc4ccccn34)n2)c(OC)cc1N1CCC(N2CCN(S(C)(=O)=O)CC2)CC1`: the % of inhibition in [10] was 46%.
`N#Cc1cccc(-c2c[nH]c3ncnc(N4CCOCC4)c23)c1` had a % of control in assay [11] of 100%.
As for `CC[C@@H]1[C@H](F)C(=O)N[C@@H]1COc1nccc2cc(C(N)=O)c(OC)cc12` [ZIMLOVISERTIB], at SRSF protein kinase 1, the % of inhibition is 0.5%.
For the molecule `COc1cc(Nc2nc(C)cc(-c3cnn4nc(OC)ccc34)n2)cc(C(F)(F)F)c1`, the % of control in [12] amounted to 95%.
As to `CC(=O)c1cc(-c2ccccc2OCC2CC2)c2ncccn12`, the % of control in [13] was 23%.
As to `CCC(=O)N1CCN(c2ccc(-n3c(=O)ccc4cnc5ccc(-c6cnc7ccccc7c6)cc5c43)cc2C(F)(F)F)CC1`, the % of control in [14] is 1.6%; in [15], 55%.
For the molecule `CN(C(=O)c1cnn2cccnc12)c1cc2c(cc1N1CCOCC1)C(=O)N(C[C@@H](F)C(C)(C)O)C2`, in assay [16], the dTM is 0.2 K.
`C=CC(=O)Nc1cc(-n2c(=O)ccc3cnc4ccc(-c5ccc(NS(C)(=O)=O)cc5)cc4c32)ccc1C`: the % of control is 100% in assay [17] (at 1 µM) and 94% in [17] (at 10 µM).
For `Cc1ccc(-c2ccc3c(ccc4sc5c(c43)NC[C@@H](C)NC5=O)n2)cn1`, the % of inhibition in [18] turned out to be 89%.
